The source of these data is US7250432B2, “Pharmaceutical compositions of diaryl-isoxazole derivatives for the prevention and treatment of cancers” (Korea Research Institute of Bioscience and Biotechnology, priority 2003, dated 2007).

Bounds are passed on as bounds.

The subject of series [1] is breast cancer cell line (MDA-MB-231). Description: Analysis of cell migration (modified Boyden chamber). The conditions noted are these: for Cell migration inhibition rate / inhibition at 1 µM / inhibition at 10 µM: breast cancer cells, 18 hours; for inhibition at 1 µM / inhibition at 10 µM: read-out: Cell migration inhibition rate. Format: cell-based. How it is done: In order to investigate cell migration, modified Boyden chamber and 8 μm pore membrane were purchased from Neuro probe Co. and staining solution for cell staining, Giemsa solution, was purchased from Sigma Co. Other instruments used were CO2 incubator for cell culture, centrifuge for cell washing and inverted microscope (TE 300, Nikon, Japan) for observation.
Particularly, 90% grown up cells on a culture plate were isolated using trypsin/EDTA. The cells were treated with soybean trypsin inhibitor, and washed with serum free medium three times. Then, cell density was adjusted to 4×10^5 cells/ml. The compounds of Example 1-6 and a medium supplemented with 10% FBS were put by 30 μl each in a chamber well of the bottom of modified Boyden chamber, on which 8 μm pore membrane was put. Silicon gasket was placed over and finally a top plate was put on the gasket and fastened with a nut. The cultured cells were put in a well of top plate by 50 μl. The chamber was rapped and further cultured in a 37° C. 5% CO2 incubator for 18 hours.
18 hours later, the nut was taken out. Membrane was separated and fixed in methanol for 10 minutes, followed by drying in the air. After membrane was completely dried, it was stained in Giemsa solution for 90 minutes. At that time, the staining solution was diluted with distilled water at the ratio of 1:10 before use. Upon competing staining, the membrane was dipped in distilled water for about 10 seconds for washing. The membrane was put on a cover slip with a part having cells not shifted heading up and scrubbed with a cotton swab carefully. Manicure was put on the edge of the cover slip, which was then fixed well on a slide glass. The number of migrated cells on the sample prepared above was investigated under inverted microscope.
Cell migration inhibition rate (%)=100−[Number of migrated cells treated with test samples/Number of migrated cells of control]×100
For a control group, only 1% dimethyl sulfoxide […]) was added instead of a compound of the present invention.

A short description of series [2]: Acute oral toxicity test in rats. Format: in vivo. How it is done:
6-week old SPF (specific pathogen-free) SD line rats were used in the acute toxicity test. Compound 1 of the present invention was suspended in 0.5% methylcellulose solution and orally administered once to 2 rats per group. Death, clinical symptoms, and weight change in rats were observed, hematological tests and biochemical tests of blood were performed, and any abnormal signs in the gastrointestinal organs of chest and abdomen were checked with eyes during autopsy.

Series [3] concerns HUVEC. Description: in vitro endothelial morphogenesis assay (tube formation). Type of series: cell-based, human. Here is the method:
Angiogenesis inhibition activity of the compound of the present invention was investigated by in vitro endothelial morphogenesis assay using human originated cell line HUVEC.
24-well cell culture plate and matrigel matrix were purchased from BD biosciences Co. Other instruments used for the experiments were CO2 incubator for cell culture and inverted microscope (TE 300, Nikon, Japan) equipped with a digital camera for observation and confirmation of the result.
Particularly, starvation of HUVECs on a serum free medium was performed for overnight. Each well of 24-well cell culture plate was coated with 0.2 Ml of matrigel matrix, which was cultured in a 37° C. incubator for 1 hour. 0.2 Ml of cell culture solution with the cell density of 20000 was put in each well, which was further cultured in a CO2 incubator for 30 minutes. Then, a fresh medium, which was diluted with different concentrations of the compounds of Example 1-6, was given to each well. 1% serum was added to the wells, followed by further culture for 24 hours. Tube formation by HUVECs is observed. In this invention, inhibition of tube formation by the compound of the present invention was observed under inverted microscope, and the results were shown in FIG. 2 and FIG. 3. […]

The subject of series [4] is zebrafish. Description: Angiogenesis inhibition in zebrafish embryos (subintestinal vessels). Format: in vivo. The note with it: FIG. 4. Here is the method:
Experimental instruments used for the invention were temperature-controlled incubator for the incubation of embryo and inverted microscope (TE 300, Nikon, Japan) equipped with a digital camera for observation and confirmation for the results.
Embryos of zebrafish were loaded on a 96-well plate by three embryos per well. The embryos were confirmed to be synchronized embryos which means one day has passed after development. The compounds of the present invention were dissolved in 0.1% DMSO to prepare different concentrations for each compound. Each compound was treated to 4 wells and inhibition of subintestinal vessels (SIVs) in 12 embryos was investigated. To prepare a control, 8 wells were treated with 0.1% DMSO (in embryo water: 0.2 g/l instant ocean salt) (Randall T. Peterson, et al, Proc. Natl. Aced. Sci. USA, 2000, 97: 12965).
For the observation of angiogenic vessels (SIVs), an rmmunological approach of Catherine E. Willet, et al. (Catherine E. Willet, et al., Angiogenesis, 1999, 3: 353), was used in the present invention. Particularly, three days after development, an embryo was fixed in 4% paraformaldehyde at room temperature for 2 hours. The embryo was washed twice with PBS, and dehydrated step by step with PBS, 25%, 50%, 75% and 100% methanol. Then, the embryo was rehydrated step by step with 100%, 75%, 50% and 25% methanol and PBS. […]

Where [5] appears, read: Homo sapiens, MDA-MB-231, 10 uM.

Turning to “5-(2,4-dimethoxy-5-ethylphenyl)-4-(4-bromophenyl)isoxazole [Example 2]”, the entries for the “Cell migration inhibition rate” value in series [1] (1 uM) and in series [1] (10 uM) were 90.80% and 94.80%, respectively.

Turning to `CCc1cc(-c2oncc2-c2ccc(OC)cc2)c(O)cc1OC` [Example 1, 5-(5-ethyl-2-hydroxy-4-methoxyphenyl)-4-(4-methoxyphenyl)isoxazole], in series [2] (SD, rat, in vivo, rats, oral, read-out: estimated LD50), the 50% lethal dose (LD50) is more than 1500 mg/kg. Further, in series [2] (rat, in vivo, po), the “clinical symptoms, weight change, death” value is “did not cause any specific clinical symptoms, weight change, or death” and the “hematological tests, biochemical tests of blood, autopsy” value is “No change was observed”. Besides, the “level up to which no toxic change was caused” value in series [2] (rats, single oral administration) is listed as not above 1000 mg/kg. For the same compound, in series [3] (0.01 μM, FIG. 2), the “inhibition of tube formation in vascular endothelial cells” value is listed as “already detected”. Besides, in series [3] (1 μM, FIG. 3), the “inhibition of tube formation in vascular endothelial cells” value is reported as “inhibited tube formation”. Moreover, the “inhibition of angiogenesis in zebrafish” value in series [4] (0.5 μM) was “inhibited angiogenesis”. Besides, the inhibition at 0.5 µM in series [4] (Danio rerio, 500 nM) was not above 50%. For the same compound, in series [1] (Homo sapiens, MDA-MB-231, 1 uM), the inhibition at 1 µM came out at 92.3%. The inhibition at 10 µM in series [1] (setting [5]) amounted to 94.5%. The inhibition at 0.05 µM in series [1] (Homo sapiens, 50 nM, MDA-MB-231, FIG. 1) is not above 50%.

`CCc1cc(-c2oncc2-c2ccc(OC)cc2)c(OC)cc1OC` [Example 3, 5-(2,4-dimethoxy-5-ethylphenyl)-4-(4-methoxyphenyl)isoxazole]: in series [1] (Homo sapiens, MDA-MB-231, 1 uM), the inhibition at 1 µM was 68.4%. Moreover, the inhibition at 10 µM in series [1] (setting [5]) worked out at 82.5%.

In the case of `CCc1cc(-c2oncc2-c2ccc(OC)cc2)c(OCc2ccccc2)cc1OC` [Example 4, 5-(2-benzyloxy-5-ethyl-4-methoxyphenyl)-4-(4-methoxyphenyl)isoxazole], the inhibition at 1 µM in series [1] (Homo sapiens, MDA-MB-231, 1 uM) came to 54.6%. For the same compound, the inhibition at 10 µM in series [1] (setting [5]) was found to be 70.1%.

`CCc1cc(-c2oncc2-c2ccc(O)cc2)c(O)cc1OC` [Example 5, 5-(5-ethyl-2-hydroxy-4-methoxyphenyl)-4-(4-hydroxyphenyl)isoxazole]: the inhibition at 1 µM in series [1] (Homo sapiens, MDA-MB-231, 1 uM) was determined as 43.5%. Also, the inhibition at 10 µM in series [1] (setting [5]) was 43.3%.

Consider `CCc1cc(-c2oncc2-c2ccc(O)cc2)c(O)cc1O` [Example 6, 5-(2,4-dihydroxy-5-ethylphenyl)-4-(4-hydroxyphenyl)isoxazole], for which the inhibition at 1 µM in series [1] (Homo sapiens, MDA-MB-231, 1 uM) came out at 79.5%. In addition, in series [1] (setting [5]), the inhibition at 10 µM is 79.4%.

The term LD50 denotes the dose at which mortality reaches 50%.
